From PubChem BioAssay (NCI)
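Compound exposure: 48 hours, 5 concentrations, 96-well plates. The concentration for 50% growth inhibition is given as GI50. At the TGI there is no net growth.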

Tested on: 786-0 renal
Experiment: NCI anticancer screen, dose series, 48 h

First: OCCN(CCO)c1ncnc2c1ncn2Cc1ccc(CCl)cc1
Second: C=CC(=O)Nc1cc(Nc2ncc(C(=O)OC(C)C)c(-c3cn(C)c4ccccc34)n2)c(OC)cc1N(C)CCN(C)C
The GI50 of the first is 6.5-fold higher: 20.4 µM for the first, 3.15 µM for the second.

Going from `Cc1ccc2c(C)c3c(ccc4ccccc43)c[n+]2c1` to `Cc1ccc(CN2CCC(C(=O)Nc3ccc(-c4cc5ccccc5[nH]4)cc3)CC2)o1`, the GI50 rises from 20.1 µM to 98.9 µM (4.9-fold).

First: CC1CCc2nc[nH]c(=O)c21 (stereo not given)
Second: Fc1[nH]nc2ccc([C@@H]3Nc4ccc5[nH]ncc5c4[C@H]4C5CCC(C5)[C@@H]34)cc12 (stereo not given in full)
The GI50 of the first is higher: greater than 100 µM for the first, 2.82 µM for the second.

Work on `Nc1ccccc1C#C/C=C\C#Cc1ccccc1OC(F)(F)F` yielded a GI50 of 5.48 µM.

First: OCCN(CCO)c1ncnc2c1ncn2Cc1ccc(CCl)cc1
Second: Cc1cnc(NCCCN(C)C)c2c1[nH]c1ccc3cc(O)ccc3c12
The TGI of the first is 21-fold higher: 37.8 µM for the first, 1.84 µM for the second.

`Cc1ccc2c(C)c3c(ccc4ccccc43)c[n+]2c1` and `Cc1ccc(CN2CCC(C(=O)Nc3ccc(-c4cc5ccccc5[nH]4)cc3)CC2)o1` cannot be ordered by TGI: greater than 100 µM for the first, greater than 100 µM for the second.

First: C=CC(=O)Nc1cc(Nc2ncc(C(=O)OC(C)C)c(-c3cn(C)c4ccccc34)n2)c(OC)cc1N(C)CCN(C)C
Second: Cc1cc(NS(=O)(=O)c2ccc(Nc3c4ccccc4nc4c(C(=O)N5CCN(CCOS(C)(=O)=O)CC5)cccc34)cc2)no1
The TGI of the first is lower: 12.9 µM for the first, greater than 100 µM for the second.

`CNS(=O)(=O)NNS(=O)(=O)c1ccccc1` and `NC1=NCCC1(c1ccccc1)c1ccccn1` (stereo not given) cannot be ordered by TGI: greater than 100 µM for the first, greater than 100 µM for the second.

Going from `O=C(O)CCC(NC(=O)c1ccc(Nc2nc3ccccc3nc2-c2cccs2)cc1)C(=O)O` (stereo not given) to `Fc1ccc(NC(=S)SCc2ccc3c(c2)OCO3)cc1F`, the TGI falls from greater than 100 µM to 72.4 µM.

First: CCOC(=O)Cn1c(C(F)(F)F)nc2nc(Cl)c(Cl)nc21
Second: Nc1ccccc1C#C/C=C\C#Cc1ccccc1OC(F)(F)F
The TGI of the first is higher: greater than 100 µM for the first, 21 µM for the second.

First: CC1CCc2nc[nH]c(=O)c21 (stereo not given)
Second: Fc1[nH]nc2ccc([C@@H]3Nc4ccc5[nH]ncc5c4[C@H]4C5CCC(C5)[C@@H]34)cc12 (stereo not given in full)
The TGI of the first is higher: greater than 100 µM for the first, 15.6 µM for the second.

Tested on: A498 renal
Experiment: NCI anticancer screen, dose series, 48 h

Compared with `OCCN(CCO)c1ncnc2c1ncn2Cc1ccc(CCl)cc1`, `C=CC(=O)Nc1cc(Nc2ncc(C(=O)OC(C)C)c(-c3cn(C)c4ccccc34)n2)c(OC)cc1N(C)CCN(C)C` is 29-fold lower in GI50: 14.2 µM for the first, 0.483 µM for the second.

`Cc1ccc2c(C)c3c(ccc4ccccc43)c[n+]2c1` and `Cc1ccc(CN2CCC(C(=O)Nc3ccc(-c4cc5ccccc5[nH]4)cc3)CC2)o1` are within 1.5-fold of each other in GI50: 5.85 µM for the first, 4.04 µM for the second.

Compared with `CC1CCc2nc[nH]c(=O)c21` (stereo not given), `Fc1[nH]nc2ccc([C@@H]3Nc4ccc5[nH]ncc5c4[C@H]4C5CCC(C5)[C@@H]34)cc12` (stereo not given in full) is lower in GI50: greater than 100 µM for the first, 0.536 µM for the second.

`Nc1ccccc1C#C/C=C\C#Cc1ccccc1OC(F)(F)F` gave a GI50 of 3.93 µM.

Compared with `OCCN(CCO)c1ncnc2c1ncn2Cc1ccc(CCl)cc1`, `Cc1cnc(NCCCN(C)C)c2c1[nH]c1ccc3cc(O)ccc3c12` is 7.6-fold lower in TGI: 28.1 µM for the first, 3.71 µM for the second.

`Cc1ccc2c(C)c3c(ccc4ccccc43)c[n+]2c1` and `Cc1ccc(CN2CCC(C(=O)Nc3ccc(-c4cc5ccccc5[nH]4)cc3)CC2)o1` cannot be ordered by TGI: greater than 100 µM for the first, greater than 100 µM for the second.

Going from `C=CC(=O)Nc1cc(Nc2ncc(C(=O)OC(C)C)c(-c3cn(C)c4ccccc34)n2)c(OC)cc1N(C)CCN(C)C` to `Cc1cc(NS(=O)(=O)c2ccc(Nc3c4ccccc4nc4c(C(=O)N5CCN(CCOS(C)(=O)=O)CC5)cccc34)cc2)no1`, the TGI rises from 7.63 µM to greater than 100 µM.

`CNS(=O)(=O)NNS(=O)(=O)c1ccccc1` and `NC1=NCCC1(c1ccccc1)c1ccccn1` (stereo not given) cannot be ordered by TGI: greater than 100 µM for the first, greater than 100 µM for the second.

Going from `O=C(O)CCC(NC(=O)c1ccc(Nc2nc3ccccc3nc2-c2cccs2)cc1)C(=O)O` (stereo not given) to `Fc1ccc(NC(=S)SCc2ccc3c(c2)OCO3)cc1F`, the TGI falls from greater than 100 µM to 61.8 µM.

Compared with `CCOC(=O)Cn1c(C(F)(F)F)nc2nc(Cl)c(Cl)nc21`, `Nc1ccccc1C#C/C=C\C#Cc1ccccc1OC(F)(F)F` is lower in TGI: greater than 74 µM for the first, 14 µM for the second.

Going from `CC1CCc2nc[nH]c(=O)c21` (stereo not given) to `Fc1[nH]nc2ccc([C@@H]3Nc4ccc5[nH]ncc5c4[C@H]4C5CCC(C5)[C@@H]34)cc12` (stereo not given in full), the TGI falls from greater than 100 µM to 3.91 µM.

Tested on: CAKI-1 renal
Experiment: NCI anticancer screen, dose series, 48 h

Compared with `OCCN(CCO)c1ncnc2c1ncn2Cc1ccc(CCl)cc1`, `C=CC(=O)Nc1cc(Nc2ncc(C(=O)OC(C)C)c(-c3cn(C)c4ccccc34)n2)c(OC)cc1N(C)CCN(C)C` is 11-fold lower in GI50: 14.5 µM for the first, 1.32 µM for the second.

First: Cc1ccc2c(C)c3c(ccc4ccccc43)c[n+]2c1
Second: Cc1ccc(CN2CCC(C(=O)Nc3ccc(-c4cc5ccccc5[nH]4)cc3)CC2)o1
The GI50 of the first is lower: 40.5 µM for the first, greater than 100 µM for the second.

Going from `CC1CCc2nc[nH]c(=O)c21` (stereo not given) to `Fc1[nH]nc2ccc([C@@H]3Nc4ccc5[nH]ncc5c4[C@H]4C5CCC(C5)[C@@H]34)cc12` (stereo not given in full), the GI50 falls from greater than 100 µM to 0.671 µM.

`Nc1ccccc1C#C/C=C\C#Cc1ccccc1OC(F)(F)F` was tested, and the GI50 was 4.42 µM.

Going from `OCCN(CCO)c1ncnc2c1ncn2Cc1ccc(CCl)cc1` to `Cc1cnc(NCCCN(C)C)c2c1[nH]c1ccc3cc(O)ccc3c12`, the TGI falls from 30 µM to 4.18 µM (7.2-fold).

`Cc1ccc2c(C)c3c(ccc4ccccc43)c[n+]2c1` and `Cc1ccc(CN2CCC(C(=O)Nc3ccc(-c4cc5ccccc5[nH]4)cc3)CC2)o1` cannot be ordered by TGI: greater than 100 µM for the first, greater than 100 µM for the second.

Going from `C=CC(=O)Nc1cc(Nc2ncc(C(=O)OC(C)C)c(-c3cn(C)c4ccccc34)n2)c(OC)cc1N(C)CCN(C)C` to `Cc1cc(NS(=O)(=O)c2ccc(Nc3c4ccccc4nc4c(C(=O)N5CCN(CCOS(C)(=O)=O)CC5)cccc34)cc2)no1`, the TGI rises from 9.32 µM to greater than 100 µM.

`CNS(=O)(=O)NNS(=O)(=O)c1ccccc1` and `NC1=NCCC1(c1ccccc1)c1ccccn1` (stereo not given) cannot be ordered by TGI: greater than 100 µM for the first, greater than 100 µM for the second.

`O=C(O)CCC(NC(=O)c1ccc(Nc2nc3ccccc3nc2-c2cccs2)cc1)C(=O)O` (stereo not given) and `Fc1ccc(NC(=S)SCc2ccc3c(c2)OCO3)cc1F` cannot be ordered by TGI: greater than 100 µM for the first, greater than 100 µM for the second.

Going from `CCOC(=O)Cn1c(C(F)(F)F)nc2nc(Cl)c(Cl)nc21` to `Nc1ccccc1C#C/C=C\C#Cc1ccccc1OC(F)(F)F`, the TGI rises from 11.5 µM to 28.2 µM (2.5-fold).

Going from `CC1CCc2nc[nH]c(=O)c21` (stereo not given) to `Fc1[nH]nc2ccc([C@@H]3Nc4ccc5[nH]ncc5c4[C@H]4C5CCC(C5)[C@@H]34)cc12` (stereo not given in full), the TGI falls from greater than 100 µM to 15 µM.

Tested on: HCT-116 colon
Experiment: NCI anticancer screen, dose series, 48 h

Compared with `OCCN(CCO)c1ncnc2c1ncn2Cc1ccc(CCl)cc1`, `C=CC(=O)Nc1cc(Nc2ncc(C(=O)OC(C)C)c(-c3cn(C)c4ccccc34)n2)c(OC)cc1N(C)CCN(C)C` is 4-fold lower in GI50: 14 µM for the first, 3.46 µM for the second.

Compared with `Cc1ccc2c(C)c3c(ccc4ccccc43)c[n+]2c1`, `Cc1ccc(CN2CCC(C(=O)Nc3ccc(-c4cc5ccccc5[nH]4)cc3)CC2)o1` is higher in GI50: 17.3 µM for the first, greater than 100 µM for the second.

First: CC1CCc2nc[nH]c(=O)c21 (stereo not given)
Second: Fc1[nH]nc2ccc([C@@H]3Nc4ccc5[nH]ncc5c4[C@H]4C5CCC(C5)[C@@H]34)cc12 (stereo not given in full)
The GI50 of the first is higher: greater than 100 µM for the first, 0.441 µM for the second.

Compound `Nc1ccccc1C#C/C=C\C#Cc1ccccc1OC(F)(F)F` has a GI50 of 4.45 µM.

Compared with `OCCN(CCO)c1ncnc2c1ncn2Cc1ccc(CCl)cc1`, `Cc1cnc(NCCCN(C)C)c2c1[nH]c1ccc3cc(O)ccc3c12` is 23-fold lower in TGI: 33.8 µM for the first, 1.44 µM for the second.

Compared with `Cc1ccc2c(C)c3c(ccc4ccccc43)c[n+]2c1`, `Cc1ccc(CN2CCC(C(=O)Nc3ccc(-c4cc5ccccc5[nH]4)cc3)CC2)o1` is higher in TGI: 78.7 µM for the first, greater than 100 µM for the second.

First: C=CC(=O)Nc1cc(Nc2ncc(C(=O)OC(C)C)c(-c3cn(C)c4ccccc34)n2)c(OC)cc1N(C)CCN(C)C
Second: Cc1cc(NS(=O)(=O)c2ccc(Nc3c4ccccc4nc4c(C(=O)N5CCN(CCOS(C)(=O)=O)CC5)cccc34)cc2)no1
The TGI of the first is lower: 20 µM for the first, greater than 100 µM for the second.

`CNS(=O)(=O)NNS(=O)(=O)c1ccccc1` and `NC1=NCCC1(c1ccccc1)c1ccccn1` (stereo not given) cannot be ordered by TGI: greater than 100 µM for the first, greater than 100 µM for the second.

`O=C(O)CCC(NC(=O)c1ccc(Nc2nc3ccccc3nc2-c2cccs2)cc1)C(=O)O` (stereo not given) and `Fc1ccc(NC(=S)SCc2ccc3c(c2)OCO3)cc1F` cannot be ordered by TGI: greater than 100 µM for the first, greater than 100 µM for the second.

First: CCOC(=O)Cn1c(C(F)(F)F)nc2nc(Cl)c(Cl)nc21
Second: Nc1ccccc1C#C/C=C\C#Cc1ccccc1OC(F)(F)F
The TGI of the first is higher: greater than 100 µM for the first, 16.7 µM for the second.

Going from `CC1CCc2nc[nH]c(=O)c21` (stereo not given) to `Fc1[nH]nc2ccc([C@@H]3Nc4ccc5[nH]ncc5c4[C@H]4C5CCC(C5)[C@@H]34)cc12` (stereo not given in full), the TGI falls from greater than 100 µM to 12.1 µM.

Tested on: HCT-15 colon
Experiment: NCI anticancer screen, dose series, 48 h

Compared with `OCCN(CCO)c1ncnc2c1ncn2Cc1ccc(CCl)cc1`, `C=CC(=O)Nc1cc(Nc2ncc(C(=O)OC(C)C)c(-c3cn(C)c4ccccc34)n2)c(OC)cc1N(C)CCN(C)C` is 10-fold lower in GI50: 18.4 µM for the first, 1.79 µM for the second.

Going from `Cc1ccc2c(C)c3c(ccc4ccccc43)c[n+]2c1` to `Cc1ccc(CN2CCC(C(=O)Nc3ccc(-c4cc5ccccc5[nH]4)cc3)CC2)o1`, the GI50 rises from 77.7 µM to greater than 100 µM.

First: CC1CCc2nc[nH]c(=O)c21 (stereo not given)
Second: Fc1[nH]nc2ccc([C@@H]3Nc4ccc5[nH]ncc5c4[C@H]4C5CCC(C5)[C@@H]34)cc12 (stereo not given in full)
The GI50 of the first is higher: greater than 100 µM for the first, 0.495 µM for the second.

`Nc1ccccc1C#C/C=C\C#Cc1ccccc1OC(F)(F)F` gave a GI50 of 4 µM.

Going from `OCCN(CCO)c1ncnc2c1ncn2Cc1ccc(CCl)cc1` to `Cc1cnc(NCCCN(C)C)c2c1[nH]c1ccc3cc(O)ccc3c12`, the TGI falls from 39.9 µM to 17 µM (2.3-fold).

`Cc1ccc2c(C)c3c(ccc4ccccc43)c[n+]2c1` and `Cc1ccc(CN2CCC(C(=O)Nc3ccc(-c4cc5ccccc5[nH]4)cc3)CC2)o1` cannot be ordered by TGI: greater than 100 µM for the first, greater than 100 µM for the second.

Compared with `C=CC(=O)Nc1cc(Nc2ncc(C(=O)OC(C)C)c(-c3cn(C)c4ccccc34)n2)c(OC)cc1N(C)CCN(C)C`, `Cc1cc(NS(=O)(=O)c2ccc(Nc3c4ccccc4nc4c(C(=O)N5CCN(CCOS(C)(=O)=O)CC5)cccc34)cc2)no1` is higher in TGI: 5.05 µM for the first, greater than 100 µM for the second.

`CNS(=O)(=O)NNS(=O)(=O)c1ccccc1` and `NC1=NCCC1(c1ccccc1)c1ccccn1` (stereo not given) cannot be ordered by TGI: greater than 100 µM for the first, greater than 100 µM for the second.

First: O=C(O)CCC(NC(=O)c1ccc(Nc2nc3ccccc3nc2-c2cccs2)cc1)C(=O)O (stereo not given)
Second: Fc1ccc(NC(=S)SCc2ccc3c(c2)OCO3)cc1F
The TGI of the first is higher: greater than 100 µM for the first, 34.5 µM for the second.

Going from `CCOC(=O)Cn1c(C(F)(F)F)nc2nc(Cl)c(Cl)nc21` to `Nc1ccccc1C#C/C=C\C#Cc1ccccc1OC(F)(F)F`, the TGI falls from greater than 100 µM to 20 µM.

First: CC1CCc2nc[nH]c(=O)c21 (stereo not given)
Second: Fc1[nH]nc2ccc([C@@H]3Nc4ccc5[nH]ncc5c4[C@H]4C5CCC(C5)[C@@H]34)cc12 (stereo not given in full)
The TGI of the first is higher: greater than 100 µM for the first, 13.1 µM for the second.
